Key:
Assay in all cases: KINOMEscan competition binding
Settings in all cases: compound 2.0 µM
[1] = biological target: ERN1 (human) (UniProt O75460)
[2] = biological target: SIK2 (human) (UniProt Q9H0K1)
[3] = biological target: PAK4 (human) (UniProt O96013)
[4] = biological target: STK25 (human) (UniProt O00506)
[5] = biological target: SRC (human) (UniProt P12931)
[6] = biological target: CAMKK1 (human) (UniProt Q8N5S9)
[7] = biological target: MAP2K6 (human) (UniProt P52564)
[8] = biological target: MAPK13 (human) (UniProt O15264)
[9] = biological target: CAMKK2 (human) (UniProt Q96RR4)
[10] = biological target: CAMK2D (human) (UniProt Q13557)
[11] = biological target: MYO3A (human) (UniProt Q8NEV4)
[12] = biological target: DDR1 (human) (UniProt Q08345)
[13] = biological target: ULK2 (human) (UniProt Q8IYT8)
[14] = biological target: RAF1 (human) (UniProt P04049)
[15] = tested on: PIK3CA (human), P42336 [H1047Y]
[16] = tested on: PIK3CA (human), P42336 [E545A]
[17] = biological target: LCK (human) (UniProt P06239)
[18] = biological target: SIK3 (human) (UniProt Q9Y2K2)
[19] = biological target: PRKCE (human) (UniProt Q02156)
[20] = biological target: IKBKB (human) (UniProt O14920)
[21] = biological target: STK32C (human) (UniProt Q86UX6)
[22] = biological target: EPHA6 (human) (UniProt Q9UF33)
[23] = biological target: TGFBR1 (human) (UniProt P36897)
[24] = biological target: CHEK2 (human) (UniProt O96017)
[25] = tested on: KIT (human), P10721 [D816V]
[26] = biological target: MAPK1 (human) (UniProt P28482)
[27] = biological target: GRK4 (human) (UniProt P32298)
[28] = biological target: TESK1 (human) (UniProt Q15569)
[29] = biological target: PDPK1 (human) (UniProt O15530)
[30] = tested on: ABL1 (human), P00519 [Y253F]
[31] = biological target: RPS6KA6 KD2 (human) (UniProt Q9UK32)
[32] = tested on: EGFR (human), P00533 [A750P; 747-749 del]
[33] = biological target: RIPK2 (human) (UniProt O43353)
[34] = tested on: RET (human), P07949 [M918T]
[35] = biological target: CSNK1G1 (human) (UniProt Q9HCP0)
[36] = tested on: KIT (human), P10721 [V559D]
[37] = biological target: EPHA4 (human) (UniProt P54764)
[38] = biological target: CDC2L2 (human) (UniProt Q9UQ88)
[39] = biological target: DCLK2 (human) (UniProt Q8N568)
[40] = biological target: IGF1R (human) (UniProt P08069)
[41] = biological target: MYLK4 (human) (UniProt Q86YV6)
[42] = biological target: BMP2K (human) (UniProt Q9NSY1)
[43] = biological target: ERBB3 (human) (UniProt P21860)

Chain of CSNK1G1 (human) (Q9HCP0 whole entry, looked up): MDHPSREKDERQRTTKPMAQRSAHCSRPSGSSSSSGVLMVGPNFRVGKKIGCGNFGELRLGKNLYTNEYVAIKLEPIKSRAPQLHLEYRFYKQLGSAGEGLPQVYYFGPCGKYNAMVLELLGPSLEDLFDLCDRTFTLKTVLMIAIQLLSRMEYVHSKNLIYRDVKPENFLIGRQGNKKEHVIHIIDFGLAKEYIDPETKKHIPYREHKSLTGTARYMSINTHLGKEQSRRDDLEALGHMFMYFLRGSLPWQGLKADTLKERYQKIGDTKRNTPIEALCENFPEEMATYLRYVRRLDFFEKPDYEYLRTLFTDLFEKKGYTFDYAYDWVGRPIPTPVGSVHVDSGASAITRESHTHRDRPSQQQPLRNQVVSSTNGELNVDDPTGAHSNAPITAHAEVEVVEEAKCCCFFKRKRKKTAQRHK
Chain of DDR1 (human) (Q08345 whole entry, looked up): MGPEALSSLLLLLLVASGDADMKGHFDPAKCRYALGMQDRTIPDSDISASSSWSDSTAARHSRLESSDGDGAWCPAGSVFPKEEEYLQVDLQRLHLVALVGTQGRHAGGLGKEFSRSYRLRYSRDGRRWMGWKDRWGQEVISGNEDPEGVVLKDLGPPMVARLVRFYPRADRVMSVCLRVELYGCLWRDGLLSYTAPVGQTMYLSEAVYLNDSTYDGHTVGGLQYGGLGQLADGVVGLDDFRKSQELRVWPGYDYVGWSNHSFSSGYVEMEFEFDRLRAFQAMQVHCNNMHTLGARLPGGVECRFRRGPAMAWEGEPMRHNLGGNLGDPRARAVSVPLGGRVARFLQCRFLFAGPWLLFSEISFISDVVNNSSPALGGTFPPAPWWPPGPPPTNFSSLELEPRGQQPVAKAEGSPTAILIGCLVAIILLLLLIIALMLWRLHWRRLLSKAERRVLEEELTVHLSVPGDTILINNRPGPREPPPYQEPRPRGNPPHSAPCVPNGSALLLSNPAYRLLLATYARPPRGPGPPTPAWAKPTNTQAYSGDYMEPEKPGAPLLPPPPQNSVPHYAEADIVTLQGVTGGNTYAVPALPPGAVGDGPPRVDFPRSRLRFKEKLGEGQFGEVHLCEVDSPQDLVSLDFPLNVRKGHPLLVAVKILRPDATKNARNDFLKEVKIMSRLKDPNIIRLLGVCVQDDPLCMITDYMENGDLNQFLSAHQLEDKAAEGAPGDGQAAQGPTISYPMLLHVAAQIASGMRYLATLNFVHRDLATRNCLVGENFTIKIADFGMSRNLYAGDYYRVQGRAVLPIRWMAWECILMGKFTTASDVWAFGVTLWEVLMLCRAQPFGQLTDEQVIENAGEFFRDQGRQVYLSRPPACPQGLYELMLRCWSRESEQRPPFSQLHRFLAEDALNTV
Chain of PAK4 (human) (O96013 whole entry, looked up): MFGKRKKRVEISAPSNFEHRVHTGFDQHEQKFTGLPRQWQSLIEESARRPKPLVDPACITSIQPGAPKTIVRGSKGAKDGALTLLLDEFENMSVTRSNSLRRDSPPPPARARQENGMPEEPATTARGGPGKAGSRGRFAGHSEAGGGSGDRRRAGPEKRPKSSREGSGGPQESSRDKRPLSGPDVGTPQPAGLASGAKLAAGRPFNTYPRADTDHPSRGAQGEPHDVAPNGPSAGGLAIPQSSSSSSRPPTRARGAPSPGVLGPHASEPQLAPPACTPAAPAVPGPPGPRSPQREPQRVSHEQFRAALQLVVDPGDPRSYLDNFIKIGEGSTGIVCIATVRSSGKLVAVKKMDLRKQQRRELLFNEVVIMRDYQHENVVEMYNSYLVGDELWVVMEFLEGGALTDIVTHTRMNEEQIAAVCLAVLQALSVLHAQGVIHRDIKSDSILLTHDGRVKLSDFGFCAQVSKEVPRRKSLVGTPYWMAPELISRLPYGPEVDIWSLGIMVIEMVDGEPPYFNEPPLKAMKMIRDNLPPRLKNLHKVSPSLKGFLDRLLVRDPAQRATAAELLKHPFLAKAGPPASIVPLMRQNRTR
Chain of PIK3CA (human), P42336 [E545A] (P42336 whole entry E545A, looked up): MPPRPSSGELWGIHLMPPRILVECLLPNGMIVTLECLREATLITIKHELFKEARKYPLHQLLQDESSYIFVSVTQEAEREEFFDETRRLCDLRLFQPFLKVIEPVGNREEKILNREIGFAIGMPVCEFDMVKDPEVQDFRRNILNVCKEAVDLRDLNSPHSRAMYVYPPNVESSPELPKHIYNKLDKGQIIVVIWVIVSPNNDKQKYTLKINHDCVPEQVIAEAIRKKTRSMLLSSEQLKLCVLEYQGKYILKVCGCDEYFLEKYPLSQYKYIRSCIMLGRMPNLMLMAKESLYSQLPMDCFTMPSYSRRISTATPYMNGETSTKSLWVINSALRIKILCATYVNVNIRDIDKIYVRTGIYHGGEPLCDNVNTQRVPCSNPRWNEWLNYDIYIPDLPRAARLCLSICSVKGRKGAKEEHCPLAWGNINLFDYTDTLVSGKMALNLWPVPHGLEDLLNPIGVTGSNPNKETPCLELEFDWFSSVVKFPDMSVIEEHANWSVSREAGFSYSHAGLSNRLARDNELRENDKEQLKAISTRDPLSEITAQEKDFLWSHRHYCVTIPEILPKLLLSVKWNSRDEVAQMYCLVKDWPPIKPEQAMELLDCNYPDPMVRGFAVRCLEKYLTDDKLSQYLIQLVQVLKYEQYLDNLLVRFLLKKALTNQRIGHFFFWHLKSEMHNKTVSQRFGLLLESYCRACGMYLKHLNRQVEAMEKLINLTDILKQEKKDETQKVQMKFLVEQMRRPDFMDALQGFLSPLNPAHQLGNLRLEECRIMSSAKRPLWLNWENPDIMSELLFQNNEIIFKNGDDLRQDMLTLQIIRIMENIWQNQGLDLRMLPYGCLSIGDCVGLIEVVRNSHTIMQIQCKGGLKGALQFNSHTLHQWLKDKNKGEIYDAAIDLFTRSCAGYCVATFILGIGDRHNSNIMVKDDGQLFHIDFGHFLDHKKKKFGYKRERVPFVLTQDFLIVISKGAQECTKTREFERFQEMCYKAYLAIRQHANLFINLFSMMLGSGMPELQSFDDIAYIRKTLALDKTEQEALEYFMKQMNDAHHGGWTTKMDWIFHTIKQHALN
Chain of RET (human), P07949 [M918T] (P07949 whole entry M918T, looked up): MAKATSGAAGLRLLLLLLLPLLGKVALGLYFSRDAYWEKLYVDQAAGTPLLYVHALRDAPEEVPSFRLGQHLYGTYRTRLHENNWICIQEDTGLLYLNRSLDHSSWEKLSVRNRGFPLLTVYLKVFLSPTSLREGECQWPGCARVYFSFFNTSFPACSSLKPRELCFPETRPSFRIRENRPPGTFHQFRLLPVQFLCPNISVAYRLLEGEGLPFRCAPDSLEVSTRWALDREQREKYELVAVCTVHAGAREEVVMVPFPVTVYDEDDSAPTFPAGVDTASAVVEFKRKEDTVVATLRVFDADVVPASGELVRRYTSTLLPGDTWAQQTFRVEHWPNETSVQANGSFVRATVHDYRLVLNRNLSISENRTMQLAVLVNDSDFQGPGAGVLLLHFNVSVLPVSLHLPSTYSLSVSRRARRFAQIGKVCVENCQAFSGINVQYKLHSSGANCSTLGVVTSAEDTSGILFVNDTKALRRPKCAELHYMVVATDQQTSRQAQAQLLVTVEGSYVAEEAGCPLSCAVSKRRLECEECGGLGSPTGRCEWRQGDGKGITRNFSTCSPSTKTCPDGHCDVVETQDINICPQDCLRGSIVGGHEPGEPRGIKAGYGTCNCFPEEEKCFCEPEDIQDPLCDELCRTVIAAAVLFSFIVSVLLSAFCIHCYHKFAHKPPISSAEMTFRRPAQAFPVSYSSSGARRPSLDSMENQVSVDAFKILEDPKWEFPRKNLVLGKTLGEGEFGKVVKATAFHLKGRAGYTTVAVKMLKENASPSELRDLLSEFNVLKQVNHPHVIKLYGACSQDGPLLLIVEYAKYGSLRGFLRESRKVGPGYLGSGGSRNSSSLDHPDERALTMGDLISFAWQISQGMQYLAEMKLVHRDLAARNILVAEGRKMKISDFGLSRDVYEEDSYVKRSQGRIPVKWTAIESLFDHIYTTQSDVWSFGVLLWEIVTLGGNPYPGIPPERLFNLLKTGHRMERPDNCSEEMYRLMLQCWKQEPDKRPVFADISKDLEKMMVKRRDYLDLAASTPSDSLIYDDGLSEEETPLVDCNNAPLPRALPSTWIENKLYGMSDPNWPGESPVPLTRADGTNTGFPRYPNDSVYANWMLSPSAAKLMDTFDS
Chain of CAMKK1 (human) (Q8N5S9 whole entry, looked up): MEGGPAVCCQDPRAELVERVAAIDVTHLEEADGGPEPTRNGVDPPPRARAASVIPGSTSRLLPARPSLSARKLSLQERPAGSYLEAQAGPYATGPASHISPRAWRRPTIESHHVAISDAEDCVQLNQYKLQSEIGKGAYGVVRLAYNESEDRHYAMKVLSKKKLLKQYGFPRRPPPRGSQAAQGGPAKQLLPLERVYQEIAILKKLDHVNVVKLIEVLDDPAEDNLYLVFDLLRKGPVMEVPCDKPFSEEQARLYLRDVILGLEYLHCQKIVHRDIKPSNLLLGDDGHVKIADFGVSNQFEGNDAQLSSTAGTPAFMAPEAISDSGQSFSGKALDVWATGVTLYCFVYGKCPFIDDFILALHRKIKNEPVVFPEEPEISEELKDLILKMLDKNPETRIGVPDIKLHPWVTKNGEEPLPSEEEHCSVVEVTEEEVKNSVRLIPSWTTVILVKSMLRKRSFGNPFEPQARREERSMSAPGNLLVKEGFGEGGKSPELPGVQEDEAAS
Chain of MAPK13 (human) (O15264 whole entry, looked up): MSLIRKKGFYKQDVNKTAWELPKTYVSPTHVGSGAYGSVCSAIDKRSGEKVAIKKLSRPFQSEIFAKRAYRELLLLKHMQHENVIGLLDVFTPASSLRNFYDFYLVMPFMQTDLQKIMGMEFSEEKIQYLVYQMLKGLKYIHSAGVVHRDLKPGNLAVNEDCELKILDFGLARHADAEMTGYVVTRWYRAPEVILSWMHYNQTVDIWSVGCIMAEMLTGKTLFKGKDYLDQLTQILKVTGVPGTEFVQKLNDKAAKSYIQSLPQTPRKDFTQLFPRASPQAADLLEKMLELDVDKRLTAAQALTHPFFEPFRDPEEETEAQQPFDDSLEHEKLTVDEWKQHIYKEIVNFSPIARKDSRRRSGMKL
Chain of PIK3CA (human), P42336 [H1047Y] (P42336 whole entry H1047Y, looked up): as the sequence (P42336 whole entry E545A, looked up) above, with A545E, H1047Y counted along it

N#Cc1ccc2ncnc(NCCc3ccc4ccccc4c3)c2c1
kinase still bound, per cent of control [1]: 100% | kinase still bound, per cent of control [2]: 100% | kinase still bound, per cent of control [3]: 91% | kinase still bound, per cent of control [4]: 100% | kinase still bound, per cent of control [5]: 94% | kinase still bound, per cent of control [6]: 97% | kinase still bound, per cent of control [7]: 100% | kinase still bound, per cent of control [8]: 100% | kinase still bound, per cent of control [9]: 100% | kinase still bound, per cent of control [10]: 100% | kinase still bound, per cent of control [11]: 100% | kinase still bound, per cent of control [12]: 96% | kinase still bound, per cent of control [13]: 100% | kinase still bound, per cent of control [14]: 100% | kinase still bound, per cent of control [15]: 78% | kinase still bound, per cent of control [16]: 92% | kinase still bound, per cent of control [17]: 84% | kinase still bound, per cent of control [18]: 100% | kinase still bound, per cent of control [19]: 100% | kinase still bound, per cent of control [20]: 100% | kinase still bound, per cent of control [21]: 100% | kinase still bound, per cent of control [22]: 100% | kinase still bound, per cent of control [23]: 100% | kinase still bound, per cent of control [24]: 62% | kinase still bound, per cent of control [25]: 85% | kinase still bound, per cent of control [26]: 100% | kinase still bound, per cent of control [27]: 89% | kinase still bound, per cent of control [28]: 100% | kinase still bound, per cent of control [29]: 100% | kinase still bound, per cent of control [30]: 100% | kinase still bound, per cent of control [31]: 86% | kinase still bound, per cent of control [32]: 83% | kinase still bound, per cent of control [33]: 100% | kinase still bound, per cent of control [34]: 89% | kinase still bound, per cent of control [35]: 83% | kinase still bound, per cent of control [36]: 95% | kinase still bound, per cent of control [37]: 100% | kinase still bound, per cent of control [38]: 100% | kinase still bound, per cent of control [39]: 100% | kinase still bound, per cent of control [40]: 100% | kinase still bound, per cent of control [41]: 81% | kinase still bound, per cent of control [42]: 68% | kinase still bound, per cent of control [43]: 100%

From the kinase profiling compilation of Christmann-Franck et al. (2016)
